As a reminder, the IC50 is the midpoint of a concentration-inhibition curve. High values mean weaker potency, low ones greater potency.

This test has as its system CWR22RV1 cells. In words: Inhibition of proliferation of CWR22RV1 cells (CCK-8). It is filed as cell-based, human. As to conditions: Homo sapiens, CWR22Rv1, 144 h, 6 days. The protocol:
• CWR22RV1 cell line (Cell Bank of Chinese Academy of Sciences, TCHu100) • FBS (Gibco, Cat. No. 10099-141) • 0.01M PBS (Biosharp, Cat. No. 162262) • RIPM1640 (Hyclone, Cat. No. 308090.01) • Penicillin-Streptomycin (Hyclone, Cat. No. SV30010) • Cell counting kit-8 (Signalway Antibody, Cat. No. CP002) • DMSO (Sigma, Cat. No. D5879) • Centrifuge Tube, 15 ml (Excell Bio, Cat. No. CS015-0001) • Cell Culture Dish, (Excell Bio, Cat. No. CS016-0128) • 96-well cell culture cluster (Corning, Cat. No. 3599) • 2. Experimental method (1) Preparation of Buffer
1) CWR22RV1 cells were subcultured in cell culture medium, and the cells in good growth condition were seeded in a 96-well plate, 80 μL for each well, thus the number of cells per well was 1500, then the plate was cultured overnight in a 37° C., 5% CO2 cell incubator.
2) The drug was prepared with dimethyl sulfoxide (DMSO) as a 30 mM stock solution. Prior to use, the solution was diluted 3 times with DMSO, and then diluted with a 3-fold gradient to obtain 9 concentration gradients. Then, each concentration of the compound was further diluted 200 times with the culture solution (to ensure that DMSO concentration in the culture system was 0.1%), 2 repeat wells for each concentration. The diluted solution of each compound (20 μL) was added to the cell culture well (with a final concentration of 10 μM, 3.3 μM, 1.1 μM . . . ), and shaken gently for mixing. In addition, three negative control wells containing only cells and three blank control wells containing only culture medium (20 μL DMSO diluted 200 times with culture medium being added to six wells) were included.
(1) After culturing for 6 days, 10 μL CCK-8 was added to each well and cultured for additional 2.5 h in a 37° C., 5% CO2 cell incubator.
(2) The absorbance (OD value) at 450 nm was measured with a multifunctional microplate reader.
(3) The data was analyzed by the Dose-response-inhibition equation in the software GraphPad Prism6, and the IC50 value was obtained.
In turn, `[2H]C([2H])([2H])n1cc(-c2cc(S(C)(=O)=O)cnc2N2CCC3(CC2)CC3)c2cc[nH]c2c1=O` [Compound 187, 6-trideuteromethyl-4-(5(methylsulfonyl)-2-(6-aza-spiro[2.5]octan-6-yl)pyridin-3-yl)-1H-pyrrolo[2,3-c]pyridin-7(6H)-one] showed an IC50 of 19 nM.

Turning to `[2H]C([2H])([2H])n1cc(-c2cc(NS(=O)(=O)C3CC3)ccc2N2CC3(COC3)C2)c2cc[nH]c2c1=O` [Compound 51, N-(3-(6-trideuteromethyl-7-oxo-6,7-dihydro-1H-pyrrolo[2,3-c]pyridin-4-yl)-4-(2-oxa-6-aza-spiro[3.3]heptan-6-yl)phenyl) cyclopropanesulfonamide], the midpoint of inhibition, the IC50, lay at 490 nM. To `Cn1cc(-c2cc(S(=O)(=O)C3CC3)ccc2N2CCCC3(CC3)C2)c2cc[nH]c2c1=O` [Compound 28, 4-(5-(cyclopropylsulfonyl)-2-(5-aza-spiro[2.5]octan-5-yl)phenyl)-6-methyl-1H-pyrrolo[2,3-c]pyridin-7(6H)-one] belongs 36 nM. Regarding `[2H]C([2H])([2H])n1cc(-c2cc(S(=O)(=O)CCCC)ccc2N2CC3(CCC3)C2)c2cc[nH]c2c1=O` [Compound 62], the IC50 was 130 nM.

Regarding `[2H]C([2H])([2H])n1cc(-c2cc(S(=O)(=O)CCCC)ccc2N2CC3(COC3)C2)c2cc[nH]c2c1=O` [Compound 66, 4-(5-(butylsulfonyl)-2-(2-oxa-6-aza-spiro[3.3]heptan-6-yl)phenyl)-6-trideuteromethyl-1H-pyrrolo[2,3-c]pyridin-7(6H)-one], the IC50 stood at 520 nM. This IC50 is about 4-fold higher than that of the compound before. The compound `Cn1cc(-c2cc(NS(=O)(=O)C3COC3)ccc2N2CC3(CCC3)C2)c2cc[nH]c2c1=O` [Compound 12, N-(3-(6-methyl-7-oxo-6,7-dihydro-1H-pyrrolo[2,3-c]pyridin-4-yl)-4-(2-aza-spiro[3.3]heptan-2-yl)phenyl)oxetane-3-sulfonamide] showed an IC50 of 89 nM. As for `CCS(=O)(=O)Nc1ccc(N2CC3CC2CO3)c(-c2cn(C)c(=O)c3[nH]ccc23)c1` (stereo not drawn) [Compound 190, N-(4-(2-oxa-5-azabicyclo[2.2.1]heptan-5-yl)-3-(methyl-7-oxo-6,7-dihydro-1H-pyrrolo[2,3-c]pyridin-4-yl)phenyl)ethanesulfonamide], the IC50 was 180 nM.

Consider `CCS(=O)(=O)Nc1ccc(N2CCC3(CC2)COC3)c(-c2cn(C)c(=O)c3[nH]ccc23)c1` [Compound 194, N-(3-(6-methyl-7-oxo-6,7-dihydro-1H-pyrrolo[2,3-c]pyridin-4-yl)-4-(2-oxa-7-aza-spiro[3.5]nonan-7-yl)phenyl)ethanesulfonamide], for which 46 nM corresponded to half-maximal inhibition (IC50). Against the preceding compound, the IC50 is about 3.9-fold lower.

The compound `[2H]C([2H])([2H])n1cc(-c2cc(S(C)(=O)=O)ccc2N2CCC3(CC2)CC3C(=O)OCC)c2cc[nH]c2c1=O` (stereo not drawn) [Compound 68, ethyl 6-(2-(6-trideuteromethyl-7-oxo-6,7-dihydro-1H-pyrrolo [2,3-c]pyridin-4-yl)-4-(methylsulfonyl)phenyl)-6-aza-spiro[2.5]octan-1-carboxylate] gave an IC50 of 530 nM. Against the preceding compound, the IC50 is about 12-fold higher. In turn, `[2H]C([2H])([2H])n1cc(-c2cc(S(C)(=O)=O)ccc2N2CC3(CCC3)C2)c2cc[nH]c2c1=O` [Compound 60, 6-trideuteromethyl-4-(5-(methylsulfonyl)-2-(2-aza-spiro[3.3]heptan-2-yl)phenyl)-1H-pyrrolo[2,3-c]pyridin-7(6H)-one] displayed an IC50 of 39 nM. `CCS(=O)(=O)Nc1ccc(N2CC3(CCC3)C2)c(-c2cn(C)c(=O)c3[nH]ccc23)c1` [Compound 14, N-(3-(6-methyl-7-oxo-6,7-dihydro-1H-pyrrolo[2,3-c]pyridin-4-yl)-4-(2-aza-spiro[3.3]heptan-2-yl)phenyl)ethanesulfonamide]: it took 31 nM to reach half-maximal inhibition (IC50).

On to `[2H]C([2H])([2H])n1cc(-c2cc(NS(=O)(=O)CC)ccc2N2CCCC3(CC3)C2)c2cc[nH]c2c1=O` [Compound 42, N-(3-(6-trideuteromethyl-7-oxo-6,7-dihydro-1H-pyrrolo[2,3-c]pyridin-4-yl)-4-(5-aza-spiro[2.5]octan-5-yl)phenyl)ethylsulfonamide], for which the IC50 is 30 nM. This IC50 and that of the compound before are within 1.5-fold of each other. In the case of `CCS(=O)(=O)Nc1ccc(N2CCC3(CC3)C2)c(-c2cn(C)c(=O)c3[nH]ccc23)c1` [Compound 7, N-(3-(6-methyl-7-oxo-6,7-dihydro-1H-pyrrolo[2,3-c]pyridin-4-yl)-4-(5-aza-spiro[2.4]heptan-5-yl)phenyl)ethylsulfonamide], the IC50 worked out at 18 nM. `[2H]C([2H])([2H])n1cc(-c2cc(S(=O)(=O)N3CCCC3C(=O)O)ccc2N2CCC3(CC2)CC3(F)F)c2cc[nH]c2c1=O` (stereo not drawn) [Compound 244, 1-((4-(1,1-difluoro-6-aza-spiro[2.5]octan-6-yl)-3-(6-trideuteromethyl-7-oxo-6,7-dihydro-1H-pyrrolo[2,3-c]pyridin-4-yl)phenyl)sulfonyl)pyrrolidin-2-carboxylic acid] came in with an IC50 of 81 nM. This IC50 is about 4.5-fold higher than that of the compound before. For `[2H]C([2H])([2H])n1cc(-c2cc(S(N)(=O)=O)cnc2N2CCC3(CC2)CC3)c2cc[nH]c2c1=O` [Compound 199, 5-(6-trideuteromethyl-7-oxo-6,7-dihydro-1H-pyrrolo[2,3-c]pyridin-4-yl)-6-(6-aza-spiro[2.5]octan-6-yl)pyridin-3-sulfonamide], the IC50 is 2 nM. The compound `CCS(=O)(=O)Nc1ccc(N2CC3(COC3)C2)c(-c2cn(C)c(=O)c3[nH]ccc23)c1` [Compound 16, N-(3-(6-methyl-7-oxo-6,7-dihydro-1H-pyrrolo[2,3-c]pyridin-4-yl)-4-(2-oxa-6-aza-spiro[3.3]heptan-6-yl)phenyl)ethanesulfonamide] displayed an IC50 of 380 nM. The figure for `[2H]C([2H])([2H])n1cc(-c2cc(S(=O)(=O)CC)ccc2N2CCC3(CC2)CC3)c2cc[nH]c2c1=O` [Compound 232, 4-(5-(ethylsulfonyl)-2-(6-aza-spiro[2.5]octan-6-yl)phenyl)-6-trideuteromethyl-1H-pyrrolo[2,3-c]pyridin-7(6H)-one] is 0.6 nM; for `Cn1cc(-c2cc(NS(C)(=O)=O)ccc2N2CCC3(CC2)COC3)c2cc[nH]c2c1=O` [Compound 195, N-(3-(6-methyl-7-oxo-6,7-dihydro-1H-pyrrolo[2,3-c]pyridin-4-yl)-4-(2-oxa-7-aza-spiro[3.5]nonan-7-yl)phenyl)methanesulfonamide] it is 160 nM; for `CCCCS(=O)(=O)Nc1ccc(N2CCC3(CC2)CC3)c(-c2cn(C)c(=O)c3[nH]ccc23)c1` [Compound 70, N-(3-(6-methyl-7-oxo-6,7-dihydro-1H-pyrrolo[2,3-c]pyridin-4-yl)-4-(6-aza-spiro[2.5]octan-6-yl)phenyl)butyl-1-sulfonamide] it is 130 nM. `CCOC(=O)C1CC12CCN(c1ccc(S(C)(=O)=O)cc1-c1cn(C)c(=O)c3[nH]ccc13)CC2` (stereo not drawn) [Compound 38, ethyl 6-(2-(6-methyl-7-oxo-6,7-dihydro-1H-pyrrolo[2,3-c]pyridin-4-yl)-4-(methylsulfonyl)phenyl)-6-azaspiro[2.5]octane-1-carboxylate] displayed an IC50 of 410 nM. Regarding `Cn1cc(-c2cc(S(C)(=O)=O)ccc2N2CCC3(CC2)COC3)c2cc[nH]c2c1=O` [Compound 177, 6-methyl-4-(5-(methylsulfonyl)-2-(2-oxa-7-aza-spiro[3.5]nonan-7-yl)phenyl)-1H-pyrrolo[2,3-c]pyridin-7(6H)-one], the IC50 was 17 nM. On to `[2H]C([2H])([2H])n1cc(-c2cc(NS(C)(=O)=O)ccc2N2CCC3(CC2)COC3)c2cc[nH]c2c1=O` [Compound 189, N-(3-(6-trideuteromethyl-7-oxo-6,7-dihydro-1H-pyrrolo[2,3-c]pyridin-4-yl)-4-(2-oxa-7-aza-spiro[3.5]nonan-7-yl)phenyl)methanesulfonamide], for which the IC50 was found to be 120 nM. In turn, `CCOC(=O)C1CC12CCN(c1ccc(NS(=O)(=O)CC)cc1-c1cn(C)c(=O)c3[nH]ccc13)CC2` (stereo not drawn) [Compound 19] returned an IC50 of 410 nM. Compared with the last compound, the IC50 is about 3.4-fold higher. `[2H]C([2H])([2H])n1cc(-c2cc(S(C)(=O)=O)c(F)cc2N2CCC3(CC2)CC3)c2cc[nH]c2c1=O` [Compound 238, 4-(4-fluoro-5-(methanesulfonyl)-2-(6-aza-spiro[2.5]octan-6-yl)phenyl)-6-trideuteromethyl-1H-pyrrolo[2,3-c]pyridin-7(6H)-one] yielded a half-inhibitory concentration (IC50) of 8 nM. This IC50 lies about 51-fold lower than the previous one.

In turn, `CCCCS(=O)(=O)c1ccc(N2CC3(CCC3)C2)c(-c2cn(C)c(=O)c3[nH]ccc23)c1` [Compound 32] had an IC50 of 65 nM. In turn, `[2H]C([2H])([2H])n1cc(-c2cc(NS(=O)(=O)CC)ccc2N2CCC3(CC2)CC3C(=O)OCC)c2cc[nH]c2c1=O` (stereo not drawn) [Compound 52] gave an IC50 of 520 nM.

`[2H]C([2H])([2H])n1cc(-c2cc(NS(=O)(=O)CCCC)ccc2N2CC3(CCC3)C2)c2cc[nH]c2c1=O` [Compound 46, N-(3-(6-trideuteromethyl-7-oxo-6,7-dihydro-1H-pyrrolo[2,3-c]pyridin-4-yl)-4-(2-aza-spiro[3.3]heptan-2-yl)phenyl)butane-1-sulfonamide]: inhibition was half-maximal at 130 nM (IC50).

These data come from patent publication US12162878B2 (HINOVA PHARMACEUTICALS INC., priority 2018, dated 2024).
